Laboratory results reported in patent US12123010B2, “Plants having increased tolerance to herbicides” (BASF SE, priority 2017, dated 2024).
“And” between values parts separate entries of the source, which are not always exact repeats. Equal values may be shown once.

Tests used:
[1] = test system: Transgenic T2 Arabidopsis plants harboring PPO inhibitor tolerance trait; test: Lab based germination assay in 48-well plates (Table i); format: in vivo, Arabidopsis thaliana; details: construct AMATU_PPO2_TP_hemG (Escherichia coli); in comparison to wild type plants
[2] = test system: Variant PPO Enzyme L397Q, F420M (Amaranthus PPO2); format: biochemical; details: variant L397Q, F420M vs wild type
[3] = test system: Transgenic T2 Arabidopsis plants and ARBTH WT MC24 non-transgenic; test: Greenhouse post spray test, injury 14 DAT (Tables ii, iii); format: in vivo, Arabidopsis thaliana; details: Arabidopsis thaliana, 336 h;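 also: value is percent injury to the sprayed plants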
[4] = test system: Variant PPO Enzyme L397Q, F420V (Amaranthus PPO2); format: biochemical; details: variant L397Q, F420V vs wild type
[5] = test system: Variant PPO Enzyme F420M (Amaranthus PPO2); test: biochemical; format: biochemical; details: variant F420M vs wild type
[6] = test system: Transgenic T2 or T3 Soybean plants harbouring PPO inhibitor tolerance trait; test: Soybean Trial, post spray, injury score 14 DAT; format: in vivo
Experimental: Soybean cv Jake is transformed as previously described by Siminszky et al., Phytochem Rev. 5:445-458 (2006). After regeneration, transformants are transplanted to soil in small pots, placed in growth chambers (16 hr day/8 hr night; 25° C. day/23° C. night; 65% relative humidity; 130-150 microE m-2 s-1) and subsequently tested for the presence of the T-DNA via Taqman analysis. After a few weeks, healthy, transgenic positive, single copy events are transplanted to larger pots and allowed to grow in the growth chamber. An optimal shoot for cutting is about 3-4 inches tall, with at least two nodes present. Each cutting is taken from the original transformant (mother plant) and dipped into rooting hormone powder (indole-3-butyric acid, IBA). The cutting is then placed in oasis wedges inside a bio-dome. The mother plant is taken to maturity in the greenhouse and harvested for seed. Wild type cuttings are also taken simultaneously to serve as negative controls. The cuttings are kept in the bio-dome for 5-7 days and then transplanted to 3 inch pots and then acclimated in the growth chamber for two more days. Subsequently, the cuttings are transferred to the greenhouse, acclimated for approximately 4 days prior to spray. T0 or 2-week old T1 plants are sprayed with a treatment of the uracilpyridines as disclosed SUPRA and photosynthesis inhibitor diuron as negative control. Herbicide injury evaluations are taken at 2, 7, 14 and 21 days after treatment.
Transgenic T2 or T3 Soybean plants harbouring PPO inhibitor tolerance trait, were sprayed post with the indicated amount of uracilpyridine+1% (v/v) MSO. Evaluation performed 14 Days After Treatment (DAT) and shown as injury (0-9) relative to non-transgenic treated plants. Injury Scale: 0-9, 0=no imjury, 9=maximum injury. Note: segregating lines.

[7] = test system: Variant PPO Enzyme R128A, F420M (Amaranthus PPO2); format: biochemical; details: variant R128A, F420M vs wild type
[8] = test system: Variant PPO Enzyme R128A, F420V (Amaranthus PPO2); test: biochemical; format: biochemical; details: variant R128A, F420V vs wild type
[9] = target: Wild Type PPO Enzyme (Amaranthus PPO2, SEQ ID NO: 1) (Amaranthus tuberculatus, UniProt Q0NZW9); test: PPO enzyme assay (recombinant), wild type; format: biochemical
Chain of Wild Type PPO Enzyme (Amaranthus PPO2, SEQ ID NO: 1) (Q0NZW9 1-534): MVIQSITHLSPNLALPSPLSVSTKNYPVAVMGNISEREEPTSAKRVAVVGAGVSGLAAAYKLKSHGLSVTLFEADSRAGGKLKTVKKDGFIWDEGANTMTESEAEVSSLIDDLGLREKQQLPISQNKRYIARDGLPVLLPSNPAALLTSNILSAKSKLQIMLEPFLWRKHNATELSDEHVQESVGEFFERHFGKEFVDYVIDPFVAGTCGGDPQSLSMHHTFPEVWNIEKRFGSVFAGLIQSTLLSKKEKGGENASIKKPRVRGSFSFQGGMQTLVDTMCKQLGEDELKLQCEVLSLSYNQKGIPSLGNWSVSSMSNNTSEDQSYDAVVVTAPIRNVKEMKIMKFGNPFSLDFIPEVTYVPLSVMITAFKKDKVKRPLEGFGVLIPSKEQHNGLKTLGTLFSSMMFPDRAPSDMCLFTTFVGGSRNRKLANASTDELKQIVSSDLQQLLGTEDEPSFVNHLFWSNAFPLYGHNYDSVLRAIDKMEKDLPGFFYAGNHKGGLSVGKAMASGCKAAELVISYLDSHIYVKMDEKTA

With `CCOC(=O)COc1ncccc1Oc1nc(-n2c(=O)cc(C(F)(F)F)n(C)c2=O)c(F)cc1Cl` [Uracilpyridine 2, ethyl 2-[[3-[[3-chloro-5-fluoro-6-[3-methyl-2,6-dioxo-4-(trifluoromethyl)pyrimidin-1-yl]-2-pyridyl]oxy]-2-pyridyl]oxy]acetate] the “Tolerance Factor” value [1] was 6400, the “Tolerance Factor (R/S)” value [2] was 4843 and the pest or weed control at 50 g/ha ([3]; Table ii, ALOMY_PPO2_R137L_F438V event F, 50 g ai/ha) was 18%. The pest or weed control at 100 g/ha ([3]; Table ii, ALOMY_PPO2_R137L_F438V event F, 100 g ai/ha) was 18%, the pest or weed control at 200 g/ha ([3]; Table ii, ALOMY_PPO2_R137L_F438V event F, 200 g ai/ha) was 23% and the pest or weed control at 50 g/ha ([3]; Table ii, ALOMY_PPO2_R137L_F438V event G, 50 g ai/ha) was 0%. It also gave a pest or weed control at 100 g/ha ([3]; Table ii, ALOMY_PPO2_R137L_F438V event G, 100 g ai/ha) of 10%, a pest or weed control at 200 g/ha ([3]; Table ii, ALOMY_PPO2_R137L_F438V event G, 200 g ai/ha) of 20% and a pest or weed control at 50 g/ha ([3]; Table ii, ALOMY_PPO2_TP_AMATU_PPO2_R128M_F420I event R, 50 g ai/ha) of 45%. For the same molecule, the pest or weed control at 100 g/ha ([3]; Table ii, ALOMY_PPO2_TP_AMATU_PPO2_R128M_F420I event R, 100 g ai/ha) was 45%, the pest or weed control at 200 g/ha ([3]; Table ii, ALOMY_PPO2_TP_AMATU_PPO2_R128M_F420I event R, 200 g ai/ha) was 75% and the pest or weed control at 50 g/ha ([3]; Table ii, AMATU_PPO2_R128A_F420M event Q, 50 g ai/ha) was 10%. For the same molecule, the pest or weed control at 100 g/ha ([3]; Table ii, AMATU_PPO2_R128A_F420M event Q, 100 g ai/ha) was 15%, the pest or weed control at 200 g/ha ([3]; Table ii, AMATU_PPO2_R128A_F420M event Q, 200 g ai/ha) was 65% and the pest or weed control at 50 g/ha ([3]; Table ii, AMATU_PPO2_R128M_F420I event K, 50 g ai/ha) was 18%. It also gave a pest or weed control at 100 g/ha ([3]; Table ii, AMATU_PPO2_R128M_F420I event K, 100 g ai/ha) of 58%, a pest or weed control at 200 g/ha ([3]; Table ii, AMATU_PPO2_R128M_F420I event K, 200 g ai/ha) of 70% and a pest or weed control at 100 g/ha ([3]; Table ii, AMATU_PPO2_TP_hemG event R, 100 g ai/ha) of 40%. The pest or weed control at 200 g/ha ([3]; Table ii, AMATU_PPO2_TP_hemG event R, 200 g ai/ha) was 35%, the pest or weed control at 1 g/ha ([3]; Table ii, AMATU_PPO2_WT event Q, 1 g ai/ha) was 23% and the pest or weed control at 5 g/ha ([3]; Table ii, AMATU_PPO2_WT event Q, 5 g ai/ha) was 100%. The pest or weed control at 10 g/ha ([3]; Table ii, AMATU_PPO2_WT event Q, 10 g ai/ha) was 100%, the pest or weed control at 30 g/ha ([3]; Table ii, AMATU_PPO2_WT event Q, 30 g ai/ha) was 100% and the pest or weed control at 1 g/ha ([3]; Table ii, ARBTH WT MC24 non-transgenic, 1 g ai/ha + 1% MSO) was 100%. The pest or weed control at 5 g/ha ([3]; Table ii, ARBTH WT MC24 non-transgenic, 5 g ai/ha + 1% MSO) was 100%, the pest or weed control at 10 g/ha ([3]; Table ii, ARBTH WT MC24 non-transgenic, 10 g ai/ha + 1% MSO) was 100% and the pest or weed control at 30 g/ha ([3]; Table ii, ARBTH WT MC24 non-transgenic, 30 g ai/ha + 1% MSO) was 100%. It also gave a pest or weed control at 50 g/ha ([3]; Table ii, ARBTH WT MC24 non-transgenic, 50 g ai/ha + 1% MSO) of 100%, a pest or weed control at 80 g/ha ([3]; Table ii, ARBTH WT MC24 non-transgenic, 80 g ai/ha + 1% MSO) of 100% and a pest or weed control at 100 g/ha ([3]; Table ii, ARBTH WT MC24 non-transgenic, 100 g ai/ha + 1% MSO) of 100%. For the same molecule, the pest or weed control at 200 g/ha ([3]; Table ii, ARBTH WT MC24 non-transgenic, 200 g ai/ha + 1% MSO) was 100%, the pest or weed control at 30 g/ha ([3]; Table ii, ARBTH_PPO1_S305L_Y426M event O, 30 g ai/ha) was 33% and the pest or weed control at 50 g/ha ([3]; Table ii, ARBTH_PPO1_S305L_Y426M event O, 50 g ai/ha as printed (row position suggests 5)) was 0%. It also gave a pest or weed control at 80 g/ha ([3]; Table ii, ARBTH_PPO1_S305L_Y426M event O, 80 g ai/ha) of 45%, a pest or weed control at 100 g/ha ([3]; Table ii, ARBTH_PPO1_S305L_Y426M event O, 100 g ai/ha as printed (row position suggests 10)) of 0% and a pest or weed control at 1 g/ha ([3]; Table ii, ARBTH_PPO1_WT event Q, 1 g ai/ha) of 15%. It also gave a pest or weed control at 5 g/ha ([3]; Table ii, ARBTH_PPO1_WT event Q, 5 g ai/ha) of 100%, a pest or weed control at 10 g/ha ([3]; Table ii, ARBTH_PPO1_WT event Q, 10 g ai/ha) of 100% and a pest or weed control at 30 g/ha ([3]; Table ii, ARBTH_PPO1_WT event Q, 30 g ai/ha) of 100%. For the same molecule, the pest or weed control at 50 g/ha ([3]; Table iii, ALOMY_PPO2_R137L_F438M (unnamed lines), 50 g ai/ha) was 0%, the pest or weed control at 100 g/ha ([3]; Table iii, ALOMY_PPO2_R137L_F438M (unnamed lines), 100 g ai/ha) was 0% and the pest or weed control at 50 g/ha ([3]; Table iii, ALOMY_PPO2_R137L_F438V (unnamed lines), 50 g ai/ha) was 0%. For the same molecule, the pest or weed control at 100 g/ha ([3]; Table iii, ALOMY_PPO2_R137L_F438V (unnamed lines), 100 g ai/ha) was 0%, the pest or weed control at 50 g/ha ([3]; Table iii, AMATU_PPO2_L397E_F420M (unnamed lines), 50 g ai/ha) was 0% and the pest or weed control at 100 g/ha ([3]; Table iii, AMATU_PPO2_L397E_F420V (unnamed lines), 100 g ai/ha) was 0%. For the same molecule, the pest or weed control at 100 g/ha ([3]; Table iii, AMATU_PPO2_L397Q_F420V (unnamed lines), 100 g ai/ha) was 80%, the pest or weed control at 50 g/ha ([3]; Table iii, ARBTH WT MC 24 (non-transgenic), 50 g ai/ha + 1% MSO) was 100% and the pest or weed control at 100 g/ha ([3]; Table iii, ARBTH WT MC 24 (non-transgenic), 100 g ai/ha + 1% MSO) was 100%. The “Tolerance Factor (R/S)” value [4] was 13678, the “Tolerance Factor (R/S)” value [5] was 244 and 415 and the “injury (0-9)” value ([6]; L397E, F420M Event 2, 25 g/ha + 1% (v/v) MSO) was 0 (No Injury). For the same molecule, the “injury (0-9)” value ([6]; L397E, F420M Event 2, 50 g/ha + 1% (v/v) MSO) was 0 (No Injury), the “injury (0-9)” value ([6]; L397E, F420M Event 2, 100 g/ha + 1% (v/v) MSO) was 0 (No Injury) and the “injury (0-9)” value ([6]; L397E, F420V Event 1, 25 g/ha + 1% (v/v) MSO) was 0 (No Injury). The “injury (0-9)” value ([6]; L397E, F420V Event 1, 50 g/ha + 1% (v/v) MSO) was 0 (No Injury), the “injury (0-9)” value ([6]; L397E, F420V Event 1, 100 g/ha + 1% (v/v) MSO) was 0 (No Injury) and the “injury (0-9)” value ([6]; L397Q, F420M Event 3, 25 g/ha + 1% (v/v) MSO) was 0 (No Injury) and 3. For the same molecule, the “injury (0-9)” value ([6]; L397Q, F420M Event 3, 50 g/ha + 1% (v/v) MSO) was 3, the “injury (0-9)” value ([6]; L397Q, F420M Event 3, 100 g/ha + 1% (v/v) MSO) was 3 and 2 and the “Tolerance Factor (R/S)” value [7] was 521. The “Tolerance Factor (R/S)” value [8] was 796 and 1105 and the IC50 [9] was 0.187 nM.
